# Data as given in patent publication US6642217B2, “Triterpenes having human antifungal and antiyeast activity” (Naturtek, LLC, priority 2000, dated 2003).
# Experiments:
# Microsporum canis [1] = assay: Agar dilution method, growth on Sabouraud dextrose agar slants; assay type: cell-based; set-up: key: +++: Maximum Fungal Growth; ++: Moderate Fungal Growth; +: Minimum Fungal Growth; +/−: Very little Fungal Growth; −: No Fungal Growth; settings: 12th day after inoculation
# Protocol: (§1) Agar dilution method. Sabouraud Dextrose Agar (Difco Laboratories, Michigan) was prepared according to the manufacturer's instructions. Five ml was dispensed in a 100×25 mm tube and autoclaved. To each tube containing 5.0 ml of liquid agar at 45° C., 0.5, 0.25, 0.12, or 0.063 ml of a DMSO solution of the compound was added to give the final indicated concentrations in Table 2. The agar was then solidified in slants. Fungal cultures were inoculated. The slants were incubated at 25-28° C. for 10-12 days, and the growth of the fungus was recorded every second day.
# Microsporum gypseum = assay: as above; assay type: cell-based; set-up: key: +++: Maximum Fungal Growth; ++: Moderate Fungal Growth; +: Minimum Fungal Growth; +/−: Very little Fungal Growth; −: No Fungal Growth; settings: 12th day after inoculation
# Protocol: as §1
# Pityrosporum ovale [2] = assay: as above; assay type: cell-based; set-up: key: +++: Maximum Fungal Growth; ++: Moderate Fungal Growth; +: Minimum Fungal Growth; +/−: Very little Fungal Growth; −: No Fungal Growth; settings: 12th day after inoculation
# Protocol: as §1
# Trichophyton rubrum [3] = assay: as above; assay type: cell-based; set-up: key: +++: Maximum Fungal Growth; ++: Moderate Fungal Growth; +: Minimum Fungal Growth; +/−: Very little Fungal Growth; −: No Fungal Growth; settings: 12th day after inoculation
# Protocol: as §1
# Microsporum audouinni [4] = assay: as above; assay type: cell-based, Microsporum audouinii; set-up: key: +++: Maximum Fungal Growth; ++: Moderate Fungal Growth; +: Minimum Fungal Growth; +/−: Very little Fungal Growth; −: No Fungal Growth; settings: 12th day after inoculation
# Protocol: as §1
# Trichophyton tonsuran = assay: as above; assay type: cell-based, Trichophyton tonsurans; set-up: key: +++: Maximum Fungal Growth; ++: Moderate Fungal Growth; +: Minimum Fungal Growth; +/−: Very little Fungal Growth; −: No Fungal Growth; settings: 12th day after inoculation
# Protocol: as §1
# [5] = tested on: Trichophyton mentagrophyte; assay: as above; assay type: cell-based, Trichophyton mentagrophytes; set-up: key to Fungal growth: +++: Maximum Fungal Growth; ++: Moderate Fungal Growth; +: Minimum Fungal Growth; +/−: Very little Fungal Growth; −: No Fungal Growth; settings: 12th day after inoculation
# Protocol: as §1
# Epidermophyton floccosum [6] = assay: as above; assay type: cell-based; set-up: key to Fungal growth: +++: Maximum Fungal Growth; ++: Moderate Fungal Growth; +: Minimum Fungal Growth; +/−: Very little Fungal Growth; −: No Fungal Growth; settings: 12th day after inoculation
# Protocol: as §1
# Microsporum audouinni [7] = assay: Direct addition method, solid compound in Sabouraud dextrose agar; assay type: cell-based, Microsporum audouinii; set-up: key to Fungal growth: +++: Maximum Fungal Growth; ++: Moderate Fungal Growth; +: Minimum Fungal Growth; +/−: Very little Fungal Growth; −: No Fungal Growth; settings: 4 mg/mL of agar; 12th day after inoculation
# Protocol: (§2) Direct addition method. Sabouraud dextrose agar was prepared according to the manufacturer's instructions and 5.0 ml was dispensed in each 100×25 mm tube. The tubes were autoclaved. To each tube containing 5.0 ml of liquid agar at 45° C., 20 mg of solid test compound was added, to give a final concentration of 4 mg/ml. The agar was solidified in slants. The fungal cultures were then innoculated. The slants were incubated at 25-28 ° C. for 10-12 days, and the growth of the fungus was recorded every second day. The results in Table 2 indicate growth at the 12th day of inoculation.
# Pityrosporum ovale [8] = assay: Direct addition into the Pityrosporum agar; assay type: cell-based; set-up: key to Pityrosporum ovale growth: +++: Maximum Growth; ++: Moderate Growth; +: Minimum Growth; +/−: Very Little Growth; −: No Growth; settings: 4 mg/ml in the agar; 18 hours after inoculation
# Protocol: Direct addition method. Sabouraud dextrose agar was prepared according to the manufacturer's instructions and 5.0 ml was dispensed in each 100×25 mm tube. The tubes were autoclaved. To each tube containing 5.0 ml of liquid agar at 45° C., 20 mg of solid test compound was added, to give a final concentration of 4 mg/ml. The agar was solidified in slants. The fungal cultures were then innoculated. […]
# Microsporum audouinii = assay: Summary of anti-fungal assays (direct addition, agar dilution, liquid culture); assay type: cell-based; settings: stated in words (Tables 1a/1b, text to Table 5)
# Protocol: (§3) This example summarizes the results of various other assays of the anti-fungal activity of betulin derivatives. Table 5 summarizes results using different assay methods—direct addition, agar dilution, and direct addition to liquid culture, as disclosed in the previous three Examples. In some cases, only one type of assay was done with a compound. In other cases, the compound was tested by multiple assays.
# Trichophyton tonsurans = assay: as above; assay type: cell-based; settings: stated in words (Tables 1a/1b, text to Table 5)
# Protocol: as §3
# Epidermophyton floccosum [9] = assay: Direct addition method, solid compound in Sabouraud dextrose agar; assay type: cell-based; set-up: key: +++: Maximum Fungal Growth; ++: Moderate Fungal Growth; +: Minimum Fungal Growth; +/−: Very little Fungal Growth; −: No Fungal Growth; settings: 4 mg/mL of agar; 12th day after inoculation
# Protocol: as §2
# Microsporum canis [10] = assay: as above; assay type: cell-based; set-up: key: +++: Maximum Fungal Growth; ++: Moderate Fungal Growth; +: Minimum Fungal Growth; +/−: Very little Fungal Growth; −: No Fungal Growth; settings: 4 mg/mL of agar; 12th day after inoculation
# Protocol: as §2
# Pityrosporum ovale [11] = assay: as above; assay type: cell-based; set-up: key: +++: Maximum Fungal Growth; ++: Moderate Fungal Growth; +: Minimum Fungal Growth; +/−: Very little Fungal Growth; −: No Fungal Growth; settings: 4 mg/mL of agar; 12th day after inoculation
# Protocol: as §2
# Trichophyton rubrum [12] = assay: as above; assay type: cell-based; set-up: key: +++: Maximum Fungal Growth; ++: Moderate Fungal Growth; +: Minimum Fungal Growth; +/−: Very little Fungal Growth; −: No Fungal Growth; settings: 4 mg/mL of agar; 12th day after inoculation
# Protocol: as §2
# Microsporum canis [13] = assay: as above; assay type: cell-based; settings: against Microsporum canis
# Protocol: as §2
structure (smiles),measurement,setting,value
CC1(C)CCC23CCC4(C)C(CCC5C6(C)CCC(OC(=O)CCCC(=O)O)C(C)(C)C6CCC54C)C2C1OC3 (stereo not drawn) [Allobetulin-3-glutarate],Fungal growth,Microsporum canis [1]; 12.5 μg/ml,+
same,Fungal growth,Microsporum canis [1]; 25 μg/ml,+/−
same,Fungal growth,Microsporum canis [1]; 50 μg/ml,−
same,Fungal growth,Microsporum canis [1]; 100 μg/ml,−
same,Fungal growth,Microsporum gypseum; 12.5 μg/ml,+++
same,Fungal growth,Microsporum gypseum; 25 μg/ml,++
same,Fungal growth,Microsporum gypseum; 50 μg/ml,++
same,Fungal growth,Microsporum gypseum; 100 μg/ml,−
same,Fungal growth,Pityrosporum ovale [2]; 12.5 μg/ml,+++
same,Fungal growth,Pityrosporum ovale [2]; 25 μg/ml,+++
same,Fungal growth,Pityrosporum ovale [2]; 50 μg/ml,+|
same,Fungal growth,Pityrosporum ovale [2]; 100 μg/ml,−
same,Fungal growth,Trichophyton rubrum [3]; 12.5 μg/ml,++
same,Fungal growth,Trichophyton rubrum [3]; 25 μg/ml,++
same,Fungal growth,Trichophyton rubrum [3]; 50 μg/ml,+
same,Fungal growth,Trichophyton rubrum [3]; 100 μg/ml,−
same,Fungal growth,Microsporum audouinni [4]; 12.5 μg/ml,+
same,Fungal growth,Microsporum audouinni [4]; 25 μg/ml,+/−
same,Fungal growth,Microsporum audouinni [4]; 50 μg/ml,−
same,Fungal growth,Microsporum audouinni [4]; 100 μg/ml,−
same,Fungal growth,Trichophyton tonsuran; 12.5 μg/ml,+
same,Fungal growth,Trichophyton tonsuran; 25 μg/ml,+/−
same,Fungal growth,Trichophyton tonsuran; 50 μg/ml,−
same,Fungal growth,Trichophyton tonsuran; 100 μg/ml,−
same,Fungal growth,[5]; 12.5 μg/ml,++
same,Fungal growth,[5]; 25 μg/ml,+
same,Fungal growth,[5]; 50 μg/ml,+
same,Fungal growth,[5]; 100 μg/ml,−
same,Fungal growth,Epidermophyton floccosum [6]; 12.5 μg/ml,++
same,Fungal growth,Epidermophyton floccosum [6]; 25 μg/ml,+
same,Fungal growth,Epidermophyton floccosum [6]; 50 μg/ml,+
same,Fungal growth,Epidermophyton floccosum [6]; 100 μg/ml,−
same,Fungal growth,Microsporum audouinni [7],+
same,Pityrosporum ovale growth,Pityrosporum ovale [8],+
same,Active against Microsporum audouinii,Microsporum audouinii,Microsporum audouinii
same,Active against Trichophyton tonsurans,Trichophyton tonsurans,Trichophyton tonsurans
same,Fungal growth,Epidermophyton floccosum [9],−
same,Fungal growth,Microsporum canis [10],+
same,Fungal growth,Pityrosporum ovale [11],−
same,Fungal growth,Trichophyton rubrum [12],+
"C=C(C)C1CCC2(COC(=O)CCC(=O)O)CC[C@@]3(C)C(CCC4[C@@]5(C)CCC(OC(=O)CCC(=O)O)C(C)(C)C5CC[C@]43C)C12 (stereo partly drawn) [Betulin-3,28-disuccinate]",Fungal growth,Microsporum canis [1]; 125 μg/ml,++
same,Fungal growth,Microsporum canis [1]; 250 μg/ml,+
same,Fungal growth,Microsporum canis [1]; 500 μg/ml,+
same,Fungal growth,Microsporum canis [1]; 1000 μg/ml,−
same,Fungal growth,Microsporum gypseum; 125 μg/ml,++
same,Fungal growth,Microsporum gypseum; 250 μg/ml,+
same,Fungal growth,Microsporum gypseum; 500 μg/ml,+
same,Fungal growth,Microsporum gypseum; 1000 μg/ml,−
same,Fungal growth,Pityrosporum ovale [2]; 125 μg/ml,+++
same,Fungal growth,Pityrosporum ovale [2]; 250 μg/ml,+++
same,Fungal growth,Pityrosporum ovale [2]; 500 μg/ml,+++
same,Fungal growth,Pityrosporum ovale [2]; 1000 μg/ml,+
same,Fungal growth,Trichophyton rubrum [3]; 125 μg/ml,++
same,Fungal growth,Trichophyton rubrum [3]; 250 μg/ml,+
same,Fungal growth,Trichophyton rubrum [3]; 500 μg/ml,+
same,Fungal growth,Trichophyton rubrum [3]; 1000 μg/ml,−
same,Fungal growth,Microsporum audouinni [4]; 125 μg/ml,+
same,Fungal growth,Microsporum audouinni [4]; 250 μg/ml,−
same,Fungal growth,Microsporum audouinni [4]; 500 μg/ml,−
same,Fungal growth,Microsporum audouinni [4]; 1000 μg/ml,−
same,Fungal growth,Trichophyton tonsuran; 125 μg/ml,++
same,Fungal growth,Trichophyton tonsuran; 250 μg/ml,+
same,Fungal growth,Trichophyton tonsuran; 500 μg/ml,+
same,Fungal growth,Trichophyton tonsuran; 1000 μg/ml,−
same,Fungal growth,[5]; 125 μg/ml,++
same,Fungal growth,[5]; 250 μg/ml,+
same,Fungal growth,[5]; 500 μg/ml,+
same,Fungal growth,[5]; 1000 μg/ml,−
same,Fungal growth,Epidermophyton floccosum [6]; 125 μg/ml,++
same,Fungal growth,Epidermophyton floccosum [6]; 250 μg/ml,+
same,Fungal growth,Epidermophyton floccosum [6]; 500 μg/ml,+
same,Fungal growth,Epidermophyton floccosum [6]; 1000 μg/ml,−
same,best anti-fungal or anti-yeast activity by the direct addition method,Microsporum canis [13],against Microsporum canis
same,Fungal growth,Microsporum audouinni [7],+
same,Pityrosporum ovale growth,Pityrosporum ovale [8],+
same,Active against Microsporum audouinii,Microsporum audouinii; listed as Betulin-3.28-di-succinate,"Microsporum audouinii,"
same,Fungal growth,Epidermophyton floccosum [9],−
same,Fungal growth,Microsporum canis [10],−
same,Fungal growth,Pityrosporum ovale [11],−
same,Fungal growth,Trichophyton rubrum [12],+
C=C(C)C1CCC2(COC(=O)c3ccccc3C(=O)O)CCC3(C)C(CCC4C5(C)CCC(O)C(C)(C)C5CCC43C)C12 (stereo not drawn) [Betulin-28-phthalate],Fungal growth,Microsporum canis [1]; 12.5 μg/ml,++
same,Fungal growth,Microsporum canis [1]; 25 μg/ml,+
same,Fungal growth,Microsporum canis [1]; 50 μg/ml,−
same,Fungal growth,Microsporum canis [1]; 100 μg/ml,−
same,Fungal growth,Microsporum gypseum; 12.5 μg/ml,+++
same,Fungal growth,Microsporum gypseum; 25 μg/ml,++
same,Fungal growth,Microsporum gypseum; 50 μg/ml,++
same,Fungal growth,Microsporum gypseum; 100 μg/ml,−
same,Fungal growth,Pityrosporum ovale [2]; 12.5 μg/ml,+++
same,Fungal growth,Pityrosporum ovale [2]; 25 μg/ml,+++
same,Fungal growth,Pityrosporum ovale [2]; 50 μg/ml,++
same,Fungal growth,Pityrosporum ovale [2]; 100 μg/ml,−
same,Fungal growth,Trichophyton rubrum [3]; 12.5 μg/ml,++
same,Fungal growth,Trichophyton rubrum [3]; 25 μg/ml,+
same,Fungal growth,Trichophyton rubrum [3]; 50 μg/ml,+
same,Fungal growth,Trichophyton rubrum [3]; 100 μg/ml,−
same,Fungal growth,Microsporum audouinni [4]; 12.5 μg/ml,++
same,Fungal growth,Microsporum audouinni [4]; 25 μg/ml,+
same,Fungal growth,Microsporum audouinni [4]; 50 μg/ml,−
same,Fungal growth,Microsporum audouinni [4]; 100 μg/ml,−
same,Fungal growth,Trichophyton tonsuran; 12.5 μg/ml,++
same,Fungal growth,Trichophyton tonsuran; 25 μg/ml,+
same,Fungal growth,Trichophyton tonsuran; 50 μg/ml,−
same,Fungal growth,Trichophyton tonsuran; 100 μg/ml,−
same,Fungal growth,[5]; 12.5 μg/ml,+++
same,Fungal growth,[5]; 25 μg/ml,++
same,Fungal growth,[5]; 50 μg/ml,+
same,Fungal growth,[5]; 100 μg/ml,−
same,Fungal growth,Epidermophyton floccosum [6]; 12.5 μg/ml,+++
same,Fungal growth,Epidermophyton floccosum [6]; 25 μg/ml,++
same,Fungal growth,Epidermophyton floccosum [6]; 50 μg/ml,+
same,Fungal growth,Epidermophyton floccosum [6]; 100 μg/ml,−
same,Active against Microsporum audouinii,Microsporum audouinii,Microsporum audouinii
same,Active against Trichophyton tonsurans,Trichophyton tonsurans,Trichophyton tonsurans
